In PubChem BioAssay (NCI) one finds GI50 and TGI data, which are given here for 5 molecules.

Some test systems named below: HCC-2998 colon; HOP-62 NSCLC; HS 578T breast; IGROV1 ovarian; NCI-H522 lung; OVCAR-4 ovarian; SK-MEL-28 melanoma; SK-MEL-5 melanoma; SNB-75 CNS; UACC-62 melanoma.
What all share (assay): inhibition of tumour cell growth, NCI panel, 48 h

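Results reflect a 48-hour exposure of cells in 96-well plates to compound at five concentrations. GI50 is the concentration that inhibits growth by half. TGI: total growth inhibition.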 A value given as a limit tells only on which side of the number the result lay.

With `C=C1C(=O)O[C@H]2[C@H]1CC/C(COC(=O)NCc1ccc(Cn3c(=O)sn(CCCCl)c3=O)cc1)=C\CC[C@@]1(C)O[C@@H]21`, the GI50 in the assay with HCC-2998 colon was 7.83 µM; in the assay with HOP-62 NSCLC, 13.9 µM; in the assay with HS 578T breast, 5.64 µM; with IGROV1 ovarian it was 1.78 µM; with NCI-H522 lung, 0.538 µM; in the assay on OVCAR-4 ovarian, 1.67 µM. Also, the GI50 in the assay on SK-MEL-28 melanoma was 1.69 µM; with SK-MEL-5 melanoma, 3.72 µM; in the assay with SNB-75 CNS, 2.03 µM; in the assay on UACC-62 melanoma it was 1.44 µM. In addition, the TGI in the assay with HCC-2998 colon was found to be 21.4 µM; in the assay with HOP-62 NSCLC, 27.5 µM; in the assay on HS 578T breast, 49 µM; with IGROV1 ovarian it was 3.88 µM; with NCI-H522 lung it was 1.94 µM; in the assay on OVCAR-4 ovarian, 3.83 µM. For the same molecule, the TGI came out at 3.16 µM in the assay on SK-MEL-28 melanoma, 14.1 µM in the assay with SK-MEL-5 melanoma, 11.4 µM in the assay with SNB-75 CNS and 2.8 µM in the assay with UACC-62 melanoma.

Consider `CCCCCCCCCCN(CCCCCCCCCC)CC(=O)c1ccc2cc(Br)c3ccccc3c2c1`, for which the GI50 in the assay on HCC-2998 colon was 1.73 µM; in the assay on HOP-62 NSCLC, 1.63 µM; in the assay with HS 578T breast, 3.59 µM; in the assay with IGROV1 ovarian, 1.84 µM; in the assay on NCI-H522 lung, 1.56 µM; in the assay on OVCAR-4 ovarian, 2.38 µM. The GI50 is 1.84 µM in the assay on SK-MEL-28 melanoma, 1.74 µM in the assay on SK-MEL-5 melanoma, 2.1 µM with SNB-75 CNS and 1.61 µM in the assay on UACC-62 melanoma. In addition, the TGI in the assay on HCC-2998 colon came to 3.16 µM; in the assay with HOP-62 NSCLC, 3.4 µM; in the assay on HS 578T breast, 21.7 µM; in the assay on IGROV1 ovarian it was 3.6 µM; in the assay on NCI-H522 lung it was 3.27 µM; with OVCAR-4 ovarian, 5.16 µM. In addition, the TGI in the assay on SK-MEL-28 melanoma turned out to be 3.32 µM; in the assay with SK-MEL-5 melanoma, 3.28 µM; in the assay with SNB-75 CNS it was 5.45 µM; in the assay on UACC-62 melanoma it was 3.35 µM.

Consider `N#Cc1c(-c2ccccc2)cc(-c2ccc(Nc3nc(Nc4ccc(Cl)cc4)nc(Nc4ccc(Cl)cc4)n3)cc2)nc1N`, for which the GI50 in the assay on HCC-2998 colon was 7 µM; with HOP-62 NSCLC, 19.1 µM; in the assay with HS 578T breast it was 1.2 µM; in the assay on IGROV1 ovarian, 1.34 µM; with NCI-H522 lung, 1.39 µM; with OVCAR-4 ovarian, 4.06 µM. Also, the GI50 in the assay with SK-MEL-28 melanoma was 1.22 µM; in the assay on SK-MEL-5 melanoma, 1.42 µM; in the assay on SNB-75 CNS, 2.65 µM; with UACC-62 melanoma, 5.56 µM. The TGI in the assay with HCC-2998 colon was 35.5 µM; in the assay on HOP-62 NSCLC, 35 µM; in the assay on HS 578T breast, 6.02 µM; with IGROV1 ovarian, 2.67 µM; with NCI-H522 lung it was 3.1 µM; in the assay on OVCAR-4 ovarian, above 100 µM. Further, the TGI in the assay with SK-MEL-28 melanoma came to 2.8 µM; in the assay on SK-MEL-5 melanoma it was 2.78 µM; in the assay with SNB-75 CNS, 14.4 µM; with UACC-62 melanoma it was 45.4 µM.

With `C1CSCCCSCCSCCCSC1`, the TGI with HCC-2998 colon, in the assay on HOP-62 NSCLC, in the assay with HS 578T breast, with IGROV1 ovarian, in the assay with NCI-H522 lung and with OVCAR-4 ovarian was above 100 µM throughout. The TGI with SK-MEL-28 melanoma, in the assay on SK-MEL-5 melanoma, in the assay with SNB-75 CNS and with UACC-62 melanoma was above 100 µM each time.

For the molecule `O=c1[nH]c(=O)n(C2OC(CO)C(O)C2O)c2c1CCCC2` (stereo not given), the TGI in the assay on HCC-2998 colon, in the assay on HOP-62 NSCLC, in the assay on HS 578T breast, with IGROV1 ovarian, in the assay with NCI-H522 lung and in the assay with OVCAR-4 ovarian was above 100 µM throughout. For the same molecule, the TGI with SK-MEL-28 melanoma, with SK-MEL-5 melanoma, in the assay with SNB-75 CNS and in the assay with UACC-62 melanoma was above 100 µM in each case.
